One test deals with T1, Rat α2β4 nAChR (Rattus norvegicus, UniProt P12389+P12392).
T1 construct: expressed in transfected cells; host or cells: Xenopus oocytes injected with cRNA
In words: cell-based.

For a further test, the target named is T2, Rat α6/α3β2β3 nAChR (Rattus norvegicus, UniProt P04757+P12390+P12391+P43143).
T2 construct: expressed in transfected cells; host or cells: Xenopus oocytes injected with cRNA
In words: cell-based.

For another test, the target named is T3, Rat α6/α3β4 nAChR (Rattus norvegicus, UniProt P04757+P12392+P43143).
T3 construct: expressed in transfected cells; host or cells: Xenopus oocytes injected with cRNA
Nature of the test: cell-based.

Another test addresses T4, Rat α4β2 nAChR (Rattus norvegicus, UniProt P09483+P12390).
T4 construct: expressed in transfected cells; host or cells: Xenopus oocytes injected with cRNA
In words: cell-based.

The target in a further test is T5, Rat α4β4 nAChR (Rattus norvegicus, UniProt P09483+P12392).
T5 construct: expressed in transfected cells; host or cells: Xenopus oocytes injected with cRNA
In words: cell-based.

A further test has as its target T6, Rat α3β2 nAChR (Rattus norvegicus, UniProt P04757+P12390).
T6 construct: expressed in transfected cells; host or cells: Xenopus oocytes injected with cRNA
Nature of the test: cell-based.

A further test has as its target T7, Rat α7 nAChR (Rattus norvegicus, UniProt Q05941).
T7 construct: expressed in transfected cells; host or cells: Xenopus oocytes injected with cRNA
In words: cell-based.

The target in the next test is T8, Rat α2β2 nAChR (Rattus norvegicus, UniProt P12389+P12390).
T8 construct: expressed in transfected cells; host or cells: Xenopus oocytes injected with cRNA
Nature of the test: cell-based.

A further test deals with T9, Rat α3β4 nAChR (Rattus norvegicus, UniProt P04757+P12392).
T9 construct: expressed in transfected cells; host or cells: Xenopus oocytes injected with cRNA
Nature of the test: cell-based.

The target of the next test is T10, Rat α9α10 nAChR (Rattus norvegicus, UniProt P43144+Q9JLB5).
T10 construct: expressed in transfected cells; host or cells: Xenopus oocytes injected with cRNA
In words: cell-based.

The target in test [1] is T11, α9α10 nAChR (Rattus norvegicus, UniProt P43144+Q9JLB5).
T11 construct: expressed in transfected cells; host or cells: Xenopus oocytes injected with cRNA
The format is cell-based.

In test [2] the test system is α9α10 nAChR. To be noted: cited from earlier work.
For another test, the system named is α6/α3β2β3 nAChR. To be noted: cited from earlier work.
The subject of a further test is GABAB receptors. To be noted: cited from earlier work.
A further test deals with α3β4 nAChR. To be noted: cited from earlier work.

Bridge positions count the residues as written; N and C are the ends. Peptide text beside a SMILES is read from it. Some results are limits rather than exact numbers.

T10 sequence (P43144 26-479 limits assumed): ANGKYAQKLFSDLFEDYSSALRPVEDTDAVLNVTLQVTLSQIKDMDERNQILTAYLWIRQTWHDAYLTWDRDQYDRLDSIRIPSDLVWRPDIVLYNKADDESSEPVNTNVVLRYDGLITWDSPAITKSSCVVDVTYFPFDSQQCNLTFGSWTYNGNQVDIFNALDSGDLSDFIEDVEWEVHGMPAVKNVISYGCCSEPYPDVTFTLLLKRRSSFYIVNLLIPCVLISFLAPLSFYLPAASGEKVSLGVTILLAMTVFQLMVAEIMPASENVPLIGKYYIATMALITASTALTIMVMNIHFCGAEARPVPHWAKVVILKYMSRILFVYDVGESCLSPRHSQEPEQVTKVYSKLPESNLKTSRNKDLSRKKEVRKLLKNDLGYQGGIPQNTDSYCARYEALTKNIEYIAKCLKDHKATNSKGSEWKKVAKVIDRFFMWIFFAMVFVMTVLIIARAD
T10 sequence (Q9JLB5 25-447 limits assumed): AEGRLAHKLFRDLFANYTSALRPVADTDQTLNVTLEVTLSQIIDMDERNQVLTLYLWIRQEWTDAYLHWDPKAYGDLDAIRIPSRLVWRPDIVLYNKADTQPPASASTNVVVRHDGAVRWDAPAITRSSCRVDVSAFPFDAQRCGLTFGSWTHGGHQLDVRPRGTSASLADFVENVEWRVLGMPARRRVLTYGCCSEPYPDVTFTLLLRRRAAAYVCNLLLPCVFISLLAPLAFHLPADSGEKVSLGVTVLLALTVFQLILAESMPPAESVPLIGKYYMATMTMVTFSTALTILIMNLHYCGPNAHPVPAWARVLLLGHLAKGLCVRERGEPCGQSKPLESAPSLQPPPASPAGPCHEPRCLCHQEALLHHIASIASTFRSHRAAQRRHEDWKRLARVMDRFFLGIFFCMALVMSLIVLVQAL
T9 sequence (P04757 26-499 limits assumed): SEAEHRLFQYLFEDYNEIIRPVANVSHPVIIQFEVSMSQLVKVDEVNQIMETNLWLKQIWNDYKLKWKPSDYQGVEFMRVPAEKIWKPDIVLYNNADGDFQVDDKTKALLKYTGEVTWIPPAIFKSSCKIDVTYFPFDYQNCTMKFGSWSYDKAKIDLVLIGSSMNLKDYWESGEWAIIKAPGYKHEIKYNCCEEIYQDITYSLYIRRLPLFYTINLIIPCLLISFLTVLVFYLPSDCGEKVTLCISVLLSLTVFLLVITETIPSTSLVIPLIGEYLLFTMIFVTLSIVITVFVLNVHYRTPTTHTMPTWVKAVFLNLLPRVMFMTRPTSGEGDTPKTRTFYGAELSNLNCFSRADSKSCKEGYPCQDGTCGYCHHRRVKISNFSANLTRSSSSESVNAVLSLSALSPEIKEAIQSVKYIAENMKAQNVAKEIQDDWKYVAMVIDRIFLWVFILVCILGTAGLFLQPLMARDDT
T9 sequence (P12392 21-495 limits assumed): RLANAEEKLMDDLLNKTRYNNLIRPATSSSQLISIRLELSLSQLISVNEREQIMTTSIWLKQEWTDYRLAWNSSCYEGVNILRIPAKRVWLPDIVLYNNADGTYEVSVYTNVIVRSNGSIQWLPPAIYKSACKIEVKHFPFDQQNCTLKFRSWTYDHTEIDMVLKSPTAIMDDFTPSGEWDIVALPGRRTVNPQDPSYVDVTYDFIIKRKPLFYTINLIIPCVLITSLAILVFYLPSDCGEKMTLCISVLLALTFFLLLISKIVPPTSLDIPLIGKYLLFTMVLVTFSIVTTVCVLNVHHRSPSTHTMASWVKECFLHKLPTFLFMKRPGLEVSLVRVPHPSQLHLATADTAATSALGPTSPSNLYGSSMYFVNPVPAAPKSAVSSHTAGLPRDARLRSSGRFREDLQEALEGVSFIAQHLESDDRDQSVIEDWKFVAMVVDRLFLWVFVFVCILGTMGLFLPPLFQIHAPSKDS
T7 sequence (Q05941 23-502 limits assumed): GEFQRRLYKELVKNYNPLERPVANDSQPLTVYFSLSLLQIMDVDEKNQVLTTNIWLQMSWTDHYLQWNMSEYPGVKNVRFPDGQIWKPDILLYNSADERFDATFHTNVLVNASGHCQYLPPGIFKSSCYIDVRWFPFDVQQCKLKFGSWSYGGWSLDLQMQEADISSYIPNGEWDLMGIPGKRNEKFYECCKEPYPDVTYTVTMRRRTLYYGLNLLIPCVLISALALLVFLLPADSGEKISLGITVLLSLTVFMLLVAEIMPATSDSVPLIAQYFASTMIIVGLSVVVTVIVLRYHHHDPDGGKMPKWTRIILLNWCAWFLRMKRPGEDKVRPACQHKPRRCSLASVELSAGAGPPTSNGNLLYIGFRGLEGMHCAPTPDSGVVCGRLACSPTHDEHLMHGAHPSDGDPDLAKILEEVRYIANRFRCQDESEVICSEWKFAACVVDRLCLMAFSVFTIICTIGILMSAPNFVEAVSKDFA
T4 sequence (P09483 31-630 limits assumed): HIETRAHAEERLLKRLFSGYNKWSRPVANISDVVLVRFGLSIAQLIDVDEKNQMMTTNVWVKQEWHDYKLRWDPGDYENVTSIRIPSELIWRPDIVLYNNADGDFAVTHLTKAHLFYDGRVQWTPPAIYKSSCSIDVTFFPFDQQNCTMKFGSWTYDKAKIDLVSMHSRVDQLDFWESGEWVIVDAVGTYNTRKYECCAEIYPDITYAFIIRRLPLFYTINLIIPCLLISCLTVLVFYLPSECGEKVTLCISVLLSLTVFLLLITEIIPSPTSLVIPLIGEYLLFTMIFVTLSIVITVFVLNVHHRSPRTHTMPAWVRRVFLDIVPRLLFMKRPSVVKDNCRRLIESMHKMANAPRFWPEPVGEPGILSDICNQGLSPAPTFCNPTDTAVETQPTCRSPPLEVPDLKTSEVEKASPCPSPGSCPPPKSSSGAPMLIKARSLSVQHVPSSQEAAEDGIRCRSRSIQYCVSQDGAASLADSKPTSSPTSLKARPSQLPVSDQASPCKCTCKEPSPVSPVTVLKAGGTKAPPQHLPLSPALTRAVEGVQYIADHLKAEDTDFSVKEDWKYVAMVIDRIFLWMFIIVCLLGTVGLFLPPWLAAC
T4 sequence (P12390 25-500 limits assumed): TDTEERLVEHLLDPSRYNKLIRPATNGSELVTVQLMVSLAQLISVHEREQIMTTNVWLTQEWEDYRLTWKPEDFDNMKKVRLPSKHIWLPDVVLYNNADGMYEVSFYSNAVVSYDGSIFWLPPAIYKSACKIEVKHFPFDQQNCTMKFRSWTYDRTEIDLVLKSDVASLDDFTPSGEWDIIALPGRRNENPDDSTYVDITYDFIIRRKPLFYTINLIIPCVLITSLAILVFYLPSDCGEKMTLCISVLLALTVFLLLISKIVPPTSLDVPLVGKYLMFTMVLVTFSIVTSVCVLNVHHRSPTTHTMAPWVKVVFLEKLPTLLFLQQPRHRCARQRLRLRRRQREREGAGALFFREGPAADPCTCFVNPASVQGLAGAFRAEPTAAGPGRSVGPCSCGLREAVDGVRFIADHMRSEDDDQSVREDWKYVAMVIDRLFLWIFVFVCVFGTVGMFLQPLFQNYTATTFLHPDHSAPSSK
T3 sequence (P43143+P04757 fused with the stated changes): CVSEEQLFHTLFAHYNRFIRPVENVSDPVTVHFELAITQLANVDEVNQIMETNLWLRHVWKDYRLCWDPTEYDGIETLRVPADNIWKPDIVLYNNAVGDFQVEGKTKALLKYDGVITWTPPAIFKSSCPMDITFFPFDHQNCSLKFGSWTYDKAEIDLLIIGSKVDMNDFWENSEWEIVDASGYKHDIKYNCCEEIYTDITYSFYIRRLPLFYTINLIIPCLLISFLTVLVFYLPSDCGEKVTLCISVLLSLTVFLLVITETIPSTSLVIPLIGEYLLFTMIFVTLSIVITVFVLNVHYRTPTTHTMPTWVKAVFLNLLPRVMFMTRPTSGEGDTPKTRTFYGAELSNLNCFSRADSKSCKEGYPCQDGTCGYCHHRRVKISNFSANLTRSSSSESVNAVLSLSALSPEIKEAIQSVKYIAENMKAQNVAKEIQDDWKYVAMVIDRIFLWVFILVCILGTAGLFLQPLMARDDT
T3 sequence (P12392 21-495): as the sequence (P12392 21-495 limits assumed) above
T6 sequence (P04757 26-499 limits assumed): as the sequence (P04757 26-499 limits assumed) above
T6 sequence (P12390 25-500 limits assumed): as the sequence (P12390 25-500 limits assumed) above
T8 sequence (P12389 28-511 limits assumed): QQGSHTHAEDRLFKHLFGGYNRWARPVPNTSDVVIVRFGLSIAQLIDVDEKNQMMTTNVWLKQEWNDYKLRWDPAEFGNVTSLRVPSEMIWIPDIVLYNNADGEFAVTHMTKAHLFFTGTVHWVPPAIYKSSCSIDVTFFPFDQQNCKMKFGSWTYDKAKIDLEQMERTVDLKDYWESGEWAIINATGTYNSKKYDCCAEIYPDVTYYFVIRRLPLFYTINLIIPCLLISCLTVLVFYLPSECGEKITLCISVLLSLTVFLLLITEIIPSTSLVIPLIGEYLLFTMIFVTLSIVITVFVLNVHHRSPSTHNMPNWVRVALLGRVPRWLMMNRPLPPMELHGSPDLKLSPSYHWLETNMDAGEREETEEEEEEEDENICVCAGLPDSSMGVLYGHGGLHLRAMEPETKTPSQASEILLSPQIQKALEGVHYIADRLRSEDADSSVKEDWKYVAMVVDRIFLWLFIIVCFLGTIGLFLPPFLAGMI
T8 sequence (P12390 25-500 limits assumed): as the sequence (P12390 25-500 limits assumed) above
T1 sequence (P12389 28-511 limits assumed): as the sequence (P12389 28-511 limits assumed) above
T1 sequence (P12392 21-495 limits assumed): as the sequence (P12392 21-495 limits assumed) above
T5 sequence (P09483 31-630 limits assumed): as the sequence (P09483 31-630 limits assumed) above
T5 sequence (P12392 21-495 limits assumed): as the sequence (P12392 21-495 limits assumed) above
T11 sequence (P43144 26-479 limits assumed): as the sequence (P43144 26-479 limits assumed) above
T11 sequence (Q9JLB5 25-447 limits assumed): as the sequence (Q9JLB5 25-447 limits assumed) above

By IC50 is commonly meant the concentration that inhibits the measured activity by half. As for `CC(C)C[C@@H]1NC(=O)[C@@H](NC(=O)[C@H](CCCNC(=N)N)NC(=O)[C@@H](N)C(C)C)CSSC[C@@H](C(=O)N[C@H]2CSSC[C@@H](C(=O)N[C@H](C(=O)N[C@@H](Cc3ccc(O)cc3)C(=O)N[C@@H](Cc3ccc(O)cc3)C(=O)N[C@H](C(=O)N[C@@H](CCC(N)=O)C(=O)N[C@@H](CO)C(=O)N[C@@H](CCCNC(=N)N)C(=O)N[C@@H](CCC(=O)O)C(=O)O)[C@@H](C)O)C(C)C)NC(=O)[C@H](CCCNC(=N)N)NC(=O)[C@H](CO)NC(=O)[C@H](Cc3c[nH]cn3)NC(=O)[C@H](CCCNC(=N)N)NC(=O)[C@H](C)NC(=O)[C@H](Cc3ccccc3)NC(=O)[C@H](CO)NC(=O)[C@@H]3CCCN3C(=O)CNC(=O)[C@H](CCCCN)NC(=O)[C@H](CCC(N)=O)NC2=O)NC(=O)[C@@H]2CCCN2C(=O)[C@@H]2CCCN2C(=O)[C@H](CCCNC(=N)N)NC(=O)[C@H](Cc2ccccc2)NC(=O)[C@H](CC(C)C)NC(=O)[C@H](CCCCN)NC(=O)[C@H](CC(N)=O)NC(=O)[C@@H]2CCCN2C(=O)[C@H](CCC(N)=O)NC(=O)[C@H](C)NC(=O)CNC(=O)[C@H](CO)NC(=O)[C@H](CCCCN)NC(=O)[C@H](CCC(=O)O)NC1=O` [αB-VxXXIVA [1], [2]] (H-VRCLEKSGAQPNKLFRPPCCQKGPSFARHSRCVYYTQSRE-OH; disulfide 3-19, 20-32), the half-maximal inhibitory concentration (IC50) was greater than 30 µM against Rat α2β4 nAChR; 12.2 µM at Rat α6/α3β2β3 nAChR; 30.1 µM against Rat α6/α3β4 nAChR; greater than 30 µM on Rat α4β2 nAChR; greater than 30 µM against Rat α4β4 nAChR; greater than 30 µM on Rat α3β2 nAChR. For the same compound, the half-inhibitory concentration (IC50) was greater than 30 µM at Rat α7 nAChR, 23.4 µM against Rat α2β2 nAChR, greater than 30 µM against Rat α3β4 nAChR and 1.2 µM against Rat α9α10 nAChR.
Turning to `CC(C)C[C@@H]1NC(=O)[C@@H](NC(=O)[C@H](CCCNC(=N)N)NC(=O)[C@@H](N)C(C)C)CSSC[C@@H]2NC(=O)[C@H](CSSC[C@@H](C(=O)N[C@H](C(=O)N[C@@H](Cc3ccc(O)cc3)C(=O)N[C@@H](Cc3ccc(O)cc3)C(=O)N[C@H](C(=O)N[C@@H](CCC(N)=O)C(=O)N[C@@H](CO)C(=O)N[C@@H](CCCNC(=N)N)C(=O)N[C@@H](CCC(=O)O)C(=O)O)[C@@H](C)O)C(C)C)NC(=O)[C@H](CCCNC(=N)N)NC(=O)[C@H](CO)NC(=O)[C@H](Cc3c[nH]cn3)NC(=O)[C@H](CCCNC(=N)N)NC(=O)[C@H](C)NC(=O)[C@H](Cc3ccccc3)NC(=O)[C@H](CO)NC(=O)[C@@H]3CCCN3C(=O)CNC(=O)[C@H](CCCCN)NC(=O)[C@H](CCC(N)=O)NC2=O)NC(=O)[C@@H]2CCCN2C(=O)[C@@H]2CCCN2C(=O)[C@H](CCCNC(=N)N)NC(=O)[C@H](Cc2ccccc2)NC(=O)[C@H](CC(C)C)NC(=O)[C@H](CCCCN)NC(=O)[C@H](CC(N)=O)NC(=O)[C@@H]2CCCN2C(=O)[C@H](CCC(N)=O)NC(=O)[C@H](C)NC(=O)CNC(=O)[C@H](CO)NC(=O)[C@H](CCCCN)NC(=O)[C@H](CCC(=O)O)NC1=O` [αB-VxXXIVA [1], [3]] (H-VRCLEKSGAQPNKLFRPPCCQKGPSFARHSRCVYYTQSRE-OH; disulfide 3-20, 19-32), the IC50 at Rat α2β4 nAChR, against Rat α6/α3β2β3 nAChR, at Rat α6/α3β4 nAChR, against Rat α4β2 nAChR, at Rat α4β4 nAChR and against Rat α3β2 nAChR was greater than 30 µM each time. Further, the IC50 against Rat α7 nAChR is greater than 30 µM; on Rat α2β2 nAChR, greater than 30 µM; at Rat α3β4 nAChR it was greater than 30 µM; on Rat α9α10 nAChR, 3.9 µM.
Take `CC(C)C[C@@H]1NC(=O)[C@@H](NC(=O)[C@H](CCCNC(=N)N)NC(=O)[C@@H](N)C(C)C)CSSC[C@@H](C(=O)N[C@H](C(=O)N[C@@H](Cc2ccc(O)cc2)C(=O)N[C@@H](Cc2ccc(O)cc2)C(=O)N[C@H](C(=O)N[C@@H](CCC(N)=O)C(=O)N[C@@H](CO)C(=O)N[C@@H](CCCNC(=N)N)C(=O)N[C@@H](CCC(=O)O)C(=O)O)[C@@H](C)O)C(C)C)NC(=O)[C@H](CCCNC(=N)N)NC(=O)[C@H](CO)NC(=O)[C@H](Cc2c[nH]cn2)NC(=O)[C@H](CCCNC(=N)N)NC(=O)[C@H](C)NC(=O)[C@H](Cc2ccccc2)NC(=O)[C@H](CO)NC(=O)[C@@H]2CCCN2C(=O)CNC(=O)[C@H](CCCCN)NC(=O)[C@H](CCC(N)=O)NC(=O)[C@@H]2CSSC[C@H](NC(=O)[C@@H]3CCCN3C(=O)[C@@H]3CCCN3C(=O)[C@H](CCCNC(=N)N)NC(=O)[C@H](Cc3ccccc3)NC(=O)[C@H](CC(C)C)NC(=O)[C@H](CCCCN)NC(=O)[C@H](CC(N)=O)NC(=O)[C@@H]3CCCN3C(=O)[C@H](CCC(N)=O)NC(=O)[C@H](C)NC(=O)CNC(=O)[C@H](CO)NC(=O)[C@H](CCCCN)NC(=O)[C@H](CCC(=O)O)NC1=O)C(=O)N2` [αB-VxXXIVA [1], [4]] (H-VRCLEKSGAQPNKLFRPPCCQKGPSFARHSRCVYYTQSRE-OH; disulfide 3-32, 19-20): the IC50 at Rat α4β2 nAChR, on Rat α7 nAChR, against Rat α3β4 nAChR and against Rat α9α10 nAChR was greater than 30 µM each time. The “block in the presence of Ba++ (in words)” value at α9α10 nAChR [1] is recorded as “did not potently block”. In addition, the “activity at nAChRs (in words)” value on Rat α9α10 nAChR was “inactive”. For the same compound, the “block of α9α10 current” value at Rat α9α10 nAChR is on record as “less than 15%”.
With α-Conotoxin Vc1.1, the values for the IC50 in the test with α9α10 nAChR [2], in the test on α6/α3β2β3 nAChR and in the test with α3β4 nAChR were 5 nM, 140 nM and 4.2 µM, respectively. Moreover, the “activity at GABAB receptors” value in the test with GABAB receptors was “activate GABAB receptors”.

The values above are taken from paper PMC3559828 (PLoS ONE, 2013).
